# Measured values published in US7074789B2, “Kinase inhibitors” (Amgen Inc., priority 1999, dated 2006).
# Experiments:
# Type in all cases: biochemical
# EGFR = target: T1, EGFR (Homo sapiens, UniProt P00533); assay: Kinase inhibition assay (33P transfer), EGFR; details: Table 2, kinase inhibition class; read-out: EGFR-1
# T1 construct: Kinases are expressed as either kinase domains or full length constructs; made in house
# How it was run: (§1)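 IC50: inhibitor concentration lowering 33P incorporation into immobilised substrate by 50%. Label transferred from ATP to poly(Glu,Tyr) 4:1 or poly(Arg,Ser) 3:1 is measured after a 0.5% phosphoric acid wash by liquid scintillation.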
# ErbB2 = target: T2, ErbB2 (Homo sapiens, UniProt P04626); assay: Kinase inhibition assay (33P transfer), ErbB2; details: read-out: ErbB2-2
# T2 construct: Kinases are expressed as either kinase domains or full length constructs; made in house
# How it was run: as §1
# IGFR-1 = target: T3, IGFR-1 (Homo sapiens, UniProt P08069); assay: Kinase inhibition assay, IGFR-1 (Table 2); details: Table 2, kinase inhibition class
# T3 construct: Kinases are expressed as either kinase domains or full length constructs; made in house
# AKT = target: T4, AKT (Homo sapiens, UniProt Q9Y243); assay: Kinase inhibition assay (33P transfer), AKT; details: Table 2, kinase inhibition class; read-out: AKT3-1
# T4 construct: Kinases are expressed as either kinase domains or full length constructs; made in house
# How it was run: (§2)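 Activity was read as 33P incorporation, counted by liquid scintillation after a 0.5% phosphoric acid wash, into poly(Glu,Tyr) 4:1 or poly(Arg,Ser) 3:1 substrates coated on plates. Enzymes were tagged (GST or polyHis) kinase domains or full-length proteins from bacterial or insect-cell expression, sometimes with regulatory polypeptides.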
# Tek = target: T5, Tek (Homo sapiens, UniProt Q02763); assay: Kinase inhibition assay (33P transfer), Tek; details: read-out: Tek-1
# T5 construct: Kinases are expressed as either kinase domains or full length constructs; made in house
# How it was run: as §1
# c-Met = target: T6, c-Met (Homo sapiens, UniProt P08581); assay: Kinase inhibition assay (33P transfer), c-Met; details: Table 2, kinase inhibition class; read-out: Met-1
# T6 construct: Kinases are expressed as either kinase domains or full length constructs; made in house
# How it was run: as §1
# Lyn = target: T7, Lyn (Homo sapiens, UniProt P07948); assay: Kinase inhibition assay (33P transfer), Lyn; details: Table 6, Lyn-1 kinase inhibition class
# T7 construct: Kinases are expressed as either kinase domains or full length constructs; made in house
# How it was run: as §1
# Fyn = target: T8, Fyn (Homo sapiens, UniProt P06241); assay: Kinase inhibition assay (33P transfer), Fyn; details: read-out: Fyn-1
# T8 construct: Kinases are expressed as either kinase domains or full length constructs; made in house
# How it was run: as §1
# PDGFRB = target: T9, PDGFRB (Homo sapiens, UniProt P09619); assay: Kinase inhibition assay (33P transfer), PDGFRB; details: read-out: PDGFRB-1
# T9 construct: Kinases are expressed as either kinase domains or full length constructs; made in house
# Kdr = target: T10, Kdr (Homo sapiens, UniProt P35968); assay: Kinase inhibition assay (33P transfer), Kdr; details: read-out: KDR-1
# T10 construct: Kinases are expressed as either kinase domains or full length constructs; made in house
# How it was run: as §2
# FGFR1 = target: T11, FGFR1 (Homo sapiens, UniProt P11362); assay: Kinase inhibition assay (33P transfer), FGFR1; details: read-out: FGFR1-1
# T11 construct: Kinases are expressed as either kinase domains or full length constructs; made in house
# Lck = target: T12, Lck (Homo sapiens, UniProt P06239); assay: Kinase inhibition assay (33P transfer), Lck; details: read-out: Lck-1
# T12 construct: Kinases are expressed as either kinase domains or full length constructs; made in house
# How it was run: as §2
# Itk = target: T13, Itk (Homo sapiens, UniProt Q08881); assay: Kinase inhibition assay (33P transfer), Itk; details: read-out: Itk-1
# T13 construct: Kinases are expressed as either kinase domains or full length constructs; made in house
# T13 sequence (Q08881 1-620): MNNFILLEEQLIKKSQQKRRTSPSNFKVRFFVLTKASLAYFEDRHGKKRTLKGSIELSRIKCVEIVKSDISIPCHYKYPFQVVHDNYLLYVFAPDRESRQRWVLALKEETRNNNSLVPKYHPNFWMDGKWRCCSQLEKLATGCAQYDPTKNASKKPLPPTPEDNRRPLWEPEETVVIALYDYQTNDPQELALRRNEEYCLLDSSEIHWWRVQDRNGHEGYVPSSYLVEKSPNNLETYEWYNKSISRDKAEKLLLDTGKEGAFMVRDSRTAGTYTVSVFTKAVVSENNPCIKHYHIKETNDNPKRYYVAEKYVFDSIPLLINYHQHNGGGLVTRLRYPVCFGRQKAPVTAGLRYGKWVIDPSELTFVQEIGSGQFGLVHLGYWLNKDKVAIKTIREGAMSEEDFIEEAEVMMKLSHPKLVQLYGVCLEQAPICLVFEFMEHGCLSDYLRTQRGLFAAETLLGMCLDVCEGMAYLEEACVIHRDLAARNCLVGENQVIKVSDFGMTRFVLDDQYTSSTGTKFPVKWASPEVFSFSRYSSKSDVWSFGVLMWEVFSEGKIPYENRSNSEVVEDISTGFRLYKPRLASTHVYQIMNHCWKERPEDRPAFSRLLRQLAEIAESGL
# How it was run: as §1
# Flt-1 = target: T14, Flt-1 (Homo sapiens, UniProt P17948); assay: Kinase inhibition assay (33P transfer), Flt-1
# T14 construct: Kinases are expressed as either kinase domains or full length constructs; made in house
# How it was run: as §1
# ErbB4 = target: T15, ErbB4 (Homo sapiens, UniProt Q15303); assay: Kinase inhibition assay (33P transfer), ErbB4; details: read-out: ErbB4-1
# T15 construct: Kinases are expressed as either kinase domains or full length constructs; made in house
# Ret-1 = target: T16, Ret-1 (Homo sapiens, UniProt P07949); assay: Kinase inhibition assay (33P transfer), Ret; details: Table 6, Ret-1 kinase inhibition class
# T16 construct: Kinases are expressed as either kinase domains or full length constructs; made in house
# Zap-70 = target: T17, Zap-70 (Homo sapiens, UniProt P43403); assay: Kinase inhibition assay (33P transfer), Zap-70; details: read-out: Zap-1
# T17 construct: Kinases are expressed as either kinase domains or full length constructs; made in house
# T17 sequence (P43403 1-619): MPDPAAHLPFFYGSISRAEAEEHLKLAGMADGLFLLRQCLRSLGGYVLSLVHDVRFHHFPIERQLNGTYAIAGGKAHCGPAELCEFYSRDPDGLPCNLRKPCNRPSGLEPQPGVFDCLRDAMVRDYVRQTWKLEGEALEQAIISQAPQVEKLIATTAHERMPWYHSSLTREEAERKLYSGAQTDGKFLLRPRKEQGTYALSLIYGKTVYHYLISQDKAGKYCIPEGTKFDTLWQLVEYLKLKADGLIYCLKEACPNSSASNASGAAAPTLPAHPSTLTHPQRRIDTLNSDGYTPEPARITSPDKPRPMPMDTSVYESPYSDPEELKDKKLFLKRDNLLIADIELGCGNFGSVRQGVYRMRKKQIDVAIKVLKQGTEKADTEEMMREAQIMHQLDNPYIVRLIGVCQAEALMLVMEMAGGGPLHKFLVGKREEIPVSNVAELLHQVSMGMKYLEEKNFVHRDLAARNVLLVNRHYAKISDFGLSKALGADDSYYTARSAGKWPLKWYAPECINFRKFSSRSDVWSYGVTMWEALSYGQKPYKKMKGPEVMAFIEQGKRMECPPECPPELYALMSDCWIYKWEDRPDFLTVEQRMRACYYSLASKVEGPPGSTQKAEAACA
# How it was run: as §2
# Hck-1 = target: T18, Hck-1 (Homo sapiens, UniProt P08631); assay: Kinase inhibition assay (33P transfer), Hck; details: Table 6, Hck-1 kinase inhibition class
# T18 construct: Kinases are expressed as either kinase domains or full length constructs; made in house
# Src = target: T19, Src (Homo sapiens, UniProt P12931); assay: Kinase inhibition assay (33P transfer), Src; details: Table 6, Src-1 kinase inhibition class
# T19 construct: Kinases are expressed as either kinase domains or full length constructs; made in house
# How it was run: as §1
# EPHB4 = target: T20, EPHB4 (Homo sapiens, UniProt P54760); assay: Kinase inhibition assay (33P transfer), EPHB4; details: read-out: EPHB4-1
# T20 construct: Kinases are expressed as either kinase domains or full length constructs; made in house
# T20 sequence (P54760 16-987): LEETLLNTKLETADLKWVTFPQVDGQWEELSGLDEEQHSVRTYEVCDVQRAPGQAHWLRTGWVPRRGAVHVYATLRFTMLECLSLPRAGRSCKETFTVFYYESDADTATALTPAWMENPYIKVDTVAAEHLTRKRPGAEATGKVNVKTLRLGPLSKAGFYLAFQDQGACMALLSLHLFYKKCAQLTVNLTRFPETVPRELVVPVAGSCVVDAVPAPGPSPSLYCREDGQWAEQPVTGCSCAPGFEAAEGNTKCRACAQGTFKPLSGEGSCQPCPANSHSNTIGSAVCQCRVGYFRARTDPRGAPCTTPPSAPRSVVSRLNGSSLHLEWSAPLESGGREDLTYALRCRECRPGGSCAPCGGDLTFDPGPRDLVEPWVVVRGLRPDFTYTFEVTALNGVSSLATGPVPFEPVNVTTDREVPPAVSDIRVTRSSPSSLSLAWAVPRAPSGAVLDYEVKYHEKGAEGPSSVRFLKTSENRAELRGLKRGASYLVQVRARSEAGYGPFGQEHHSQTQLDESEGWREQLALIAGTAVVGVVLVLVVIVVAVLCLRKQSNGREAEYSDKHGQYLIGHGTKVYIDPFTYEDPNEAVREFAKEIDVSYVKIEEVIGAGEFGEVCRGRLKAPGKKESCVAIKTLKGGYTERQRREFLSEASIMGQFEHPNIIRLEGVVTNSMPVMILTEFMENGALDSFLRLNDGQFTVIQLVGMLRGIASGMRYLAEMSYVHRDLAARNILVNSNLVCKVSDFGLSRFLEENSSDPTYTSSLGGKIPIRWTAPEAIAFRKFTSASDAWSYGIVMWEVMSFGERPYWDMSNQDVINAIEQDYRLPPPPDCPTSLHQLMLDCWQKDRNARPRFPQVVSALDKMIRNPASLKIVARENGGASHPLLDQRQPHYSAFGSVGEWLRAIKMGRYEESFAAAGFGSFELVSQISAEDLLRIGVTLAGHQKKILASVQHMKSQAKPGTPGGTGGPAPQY
# T9 sequence (P09619 33-1106, species assumed): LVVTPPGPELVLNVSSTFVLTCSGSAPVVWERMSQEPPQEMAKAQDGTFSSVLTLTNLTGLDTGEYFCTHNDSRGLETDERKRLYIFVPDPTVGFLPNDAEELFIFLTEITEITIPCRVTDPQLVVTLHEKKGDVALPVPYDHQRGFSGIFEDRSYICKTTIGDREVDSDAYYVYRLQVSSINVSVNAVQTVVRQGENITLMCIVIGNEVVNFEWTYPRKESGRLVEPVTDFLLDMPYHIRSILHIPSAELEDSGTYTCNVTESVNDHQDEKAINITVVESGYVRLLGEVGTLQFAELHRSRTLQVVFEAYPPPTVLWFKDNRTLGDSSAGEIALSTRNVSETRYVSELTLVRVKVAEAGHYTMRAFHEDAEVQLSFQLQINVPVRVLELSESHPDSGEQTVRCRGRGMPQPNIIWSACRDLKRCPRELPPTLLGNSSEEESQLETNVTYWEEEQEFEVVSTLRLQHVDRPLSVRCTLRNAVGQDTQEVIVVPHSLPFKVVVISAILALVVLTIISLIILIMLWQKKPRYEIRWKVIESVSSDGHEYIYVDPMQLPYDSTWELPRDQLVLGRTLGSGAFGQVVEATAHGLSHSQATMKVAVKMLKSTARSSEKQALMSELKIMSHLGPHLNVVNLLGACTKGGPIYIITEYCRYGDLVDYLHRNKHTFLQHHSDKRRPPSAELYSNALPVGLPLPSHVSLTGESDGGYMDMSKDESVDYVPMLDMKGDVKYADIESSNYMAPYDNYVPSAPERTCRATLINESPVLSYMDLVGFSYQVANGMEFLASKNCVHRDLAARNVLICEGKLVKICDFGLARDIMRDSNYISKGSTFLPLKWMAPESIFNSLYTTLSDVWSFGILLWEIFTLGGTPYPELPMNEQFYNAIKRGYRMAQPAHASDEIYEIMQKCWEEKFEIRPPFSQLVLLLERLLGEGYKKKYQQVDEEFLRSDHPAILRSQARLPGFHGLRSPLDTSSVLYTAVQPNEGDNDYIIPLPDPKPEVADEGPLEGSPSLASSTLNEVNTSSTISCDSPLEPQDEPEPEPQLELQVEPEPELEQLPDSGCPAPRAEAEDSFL
# T1 sequence (P00533 25-1210, species assumed): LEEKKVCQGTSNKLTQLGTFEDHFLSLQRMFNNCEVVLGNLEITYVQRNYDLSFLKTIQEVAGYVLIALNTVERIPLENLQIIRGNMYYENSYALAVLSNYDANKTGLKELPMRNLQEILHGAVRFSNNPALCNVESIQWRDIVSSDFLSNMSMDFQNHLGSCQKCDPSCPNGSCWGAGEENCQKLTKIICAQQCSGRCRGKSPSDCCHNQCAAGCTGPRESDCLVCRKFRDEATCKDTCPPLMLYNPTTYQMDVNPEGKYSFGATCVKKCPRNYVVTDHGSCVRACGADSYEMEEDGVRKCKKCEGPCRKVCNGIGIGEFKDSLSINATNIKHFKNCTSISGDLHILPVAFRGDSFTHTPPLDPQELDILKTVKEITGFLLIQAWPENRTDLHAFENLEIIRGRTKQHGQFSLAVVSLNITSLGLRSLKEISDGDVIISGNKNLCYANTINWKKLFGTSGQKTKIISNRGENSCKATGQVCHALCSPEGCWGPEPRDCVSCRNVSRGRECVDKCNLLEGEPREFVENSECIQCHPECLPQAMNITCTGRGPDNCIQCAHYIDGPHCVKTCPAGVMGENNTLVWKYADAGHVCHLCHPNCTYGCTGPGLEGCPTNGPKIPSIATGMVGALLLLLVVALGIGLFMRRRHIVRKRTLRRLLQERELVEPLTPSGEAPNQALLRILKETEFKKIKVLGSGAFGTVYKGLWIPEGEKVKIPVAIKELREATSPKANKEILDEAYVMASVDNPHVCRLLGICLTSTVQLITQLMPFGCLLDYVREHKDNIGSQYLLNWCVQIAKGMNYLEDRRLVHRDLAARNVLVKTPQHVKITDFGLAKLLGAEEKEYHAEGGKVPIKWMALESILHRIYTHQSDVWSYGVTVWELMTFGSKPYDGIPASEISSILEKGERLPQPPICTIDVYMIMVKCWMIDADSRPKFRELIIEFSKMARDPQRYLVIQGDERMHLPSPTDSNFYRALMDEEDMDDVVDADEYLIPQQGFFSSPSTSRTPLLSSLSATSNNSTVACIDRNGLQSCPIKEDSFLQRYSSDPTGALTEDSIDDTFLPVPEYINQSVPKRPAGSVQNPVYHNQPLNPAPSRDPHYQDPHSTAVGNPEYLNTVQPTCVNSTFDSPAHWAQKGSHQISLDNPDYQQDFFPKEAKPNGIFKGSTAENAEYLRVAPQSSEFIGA
# T4 sequence (Q9Y243 whole entry, the tested form may be a part): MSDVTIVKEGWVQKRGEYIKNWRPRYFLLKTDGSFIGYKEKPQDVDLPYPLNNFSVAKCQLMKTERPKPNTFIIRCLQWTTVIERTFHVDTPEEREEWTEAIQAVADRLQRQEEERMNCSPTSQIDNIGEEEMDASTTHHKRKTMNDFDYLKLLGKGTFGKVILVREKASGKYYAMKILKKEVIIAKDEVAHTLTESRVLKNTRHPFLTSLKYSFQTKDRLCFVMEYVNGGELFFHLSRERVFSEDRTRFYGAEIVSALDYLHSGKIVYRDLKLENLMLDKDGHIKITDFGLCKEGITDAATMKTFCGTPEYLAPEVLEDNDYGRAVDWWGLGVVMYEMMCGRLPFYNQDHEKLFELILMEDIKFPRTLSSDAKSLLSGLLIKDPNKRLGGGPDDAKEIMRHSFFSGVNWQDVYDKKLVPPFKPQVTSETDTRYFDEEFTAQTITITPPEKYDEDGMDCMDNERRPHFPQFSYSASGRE
# T8 sequence (P06241 whole entry, species assumed, the tested form may be a part): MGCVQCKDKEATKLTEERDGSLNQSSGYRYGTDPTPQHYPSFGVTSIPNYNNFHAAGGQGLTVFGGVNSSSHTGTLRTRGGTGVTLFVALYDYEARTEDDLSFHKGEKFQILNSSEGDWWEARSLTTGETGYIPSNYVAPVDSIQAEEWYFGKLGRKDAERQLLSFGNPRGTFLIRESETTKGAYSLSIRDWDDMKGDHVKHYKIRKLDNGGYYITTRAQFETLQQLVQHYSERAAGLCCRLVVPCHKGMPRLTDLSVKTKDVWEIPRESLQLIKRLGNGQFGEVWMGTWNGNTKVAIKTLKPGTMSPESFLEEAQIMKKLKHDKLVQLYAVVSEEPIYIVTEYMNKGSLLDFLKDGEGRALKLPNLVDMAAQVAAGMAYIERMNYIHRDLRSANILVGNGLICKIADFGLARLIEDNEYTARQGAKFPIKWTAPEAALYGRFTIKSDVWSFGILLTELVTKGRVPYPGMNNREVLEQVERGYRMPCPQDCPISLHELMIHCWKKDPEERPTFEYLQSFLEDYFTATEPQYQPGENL
# T15 sequence (Q15303 26-1308, species assumed): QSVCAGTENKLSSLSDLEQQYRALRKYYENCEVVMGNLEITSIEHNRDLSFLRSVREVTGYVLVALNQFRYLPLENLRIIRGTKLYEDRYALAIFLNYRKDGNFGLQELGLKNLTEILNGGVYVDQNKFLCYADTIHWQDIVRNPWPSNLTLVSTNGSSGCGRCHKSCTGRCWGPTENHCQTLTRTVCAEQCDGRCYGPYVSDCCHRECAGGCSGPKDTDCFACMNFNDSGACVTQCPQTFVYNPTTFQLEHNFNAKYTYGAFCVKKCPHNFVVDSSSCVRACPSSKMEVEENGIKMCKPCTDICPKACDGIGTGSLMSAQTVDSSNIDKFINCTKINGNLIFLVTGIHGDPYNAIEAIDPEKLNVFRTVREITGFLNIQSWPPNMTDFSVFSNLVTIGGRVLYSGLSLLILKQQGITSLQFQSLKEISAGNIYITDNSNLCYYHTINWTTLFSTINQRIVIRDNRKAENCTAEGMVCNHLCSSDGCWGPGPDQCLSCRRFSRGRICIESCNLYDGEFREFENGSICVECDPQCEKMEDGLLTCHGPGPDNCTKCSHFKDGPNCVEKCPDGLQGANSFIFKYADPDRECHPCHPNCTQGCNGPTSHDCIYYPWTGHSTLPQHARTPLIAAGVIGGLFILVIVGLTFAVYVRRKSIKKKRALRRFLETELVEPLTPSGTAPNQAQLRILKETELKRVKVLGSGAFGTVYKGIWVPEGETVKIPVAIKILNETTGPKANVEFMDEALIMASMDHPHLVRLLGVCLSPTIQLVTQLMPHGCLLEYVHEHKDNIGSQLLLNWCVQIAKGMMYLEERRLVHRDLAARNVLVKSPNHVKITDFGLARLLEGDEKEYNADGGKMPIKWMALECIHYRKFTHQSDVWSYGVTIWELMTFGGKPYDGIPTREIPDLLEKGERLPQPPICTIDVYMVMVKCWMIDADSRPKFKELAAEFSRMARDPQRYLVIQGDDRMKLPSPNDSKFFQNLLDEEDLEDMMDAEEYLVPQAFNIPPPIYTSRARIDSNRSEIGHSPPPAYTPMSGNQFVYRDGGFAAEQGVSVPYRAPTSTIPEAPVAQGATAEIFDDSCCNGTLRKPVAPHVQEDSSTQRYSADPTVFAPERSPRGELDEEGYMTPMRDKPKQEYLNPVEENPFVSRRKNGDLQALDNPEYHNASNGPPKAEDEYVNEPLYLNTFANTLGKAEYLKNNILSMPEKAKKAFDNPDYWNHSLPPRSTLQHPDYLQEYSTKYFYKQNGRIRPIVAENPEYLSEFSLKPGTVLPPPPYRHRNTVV
# T12 sequence (P06239 whole entry, species assumed, the tested form may be a part): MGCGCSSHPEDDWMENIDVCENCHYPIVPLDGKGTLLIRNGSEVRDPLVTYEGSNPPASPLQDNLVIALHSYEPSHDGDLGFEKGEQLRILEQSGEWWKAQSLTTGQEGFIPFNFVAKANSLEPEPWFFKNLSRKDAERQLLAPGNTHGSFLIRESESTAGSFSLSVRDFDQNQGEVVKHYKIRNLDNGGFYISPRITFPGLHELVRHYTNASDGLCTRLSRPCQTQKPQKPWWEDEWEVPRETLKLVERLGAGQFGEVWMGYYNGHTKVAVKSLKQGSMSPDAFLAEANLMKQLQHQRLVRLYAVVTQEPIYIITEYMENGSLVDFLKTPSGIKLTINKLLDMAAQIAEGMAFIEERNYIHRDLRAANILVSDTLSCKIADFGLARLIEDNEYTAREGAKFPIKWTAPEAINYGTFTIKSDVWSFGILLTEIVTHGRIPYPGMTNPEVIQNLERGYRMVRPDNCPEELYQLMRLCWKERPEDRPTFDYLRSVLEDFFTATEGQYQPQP
IC50 (EGFR),IC50 (ErbB2),IC50 (IGFR-1),IC50 (AKT),IC50 (Tek),IC50 (c-Met),IC50 (Lyn),IC50 (Fyn),IC50 (PDGFRB),IC50 (Kdr),IC50 (FGFR1),IC50 (Lck),IC50 (Itk),IC50 (Flt-1),IC50 (ErbB4),IC50 (Ret-1),IC50 (Zap-70),IC50 (Hck-1),IC50 (Src),IC50 (EPHB4),SMILES
0.804 to 4.82 µM,4.82 to 7.03 µM,> 9.04 µM,> 9.04 µM,7.03 to 9.04 µM,> 9.04 µM,0.804 to 4.82 µM,> 9.04 µM,0.804 to 4.82 µM,< 0.804 µM,0.804 to 4.82 µM,0.804 to 4.82 µM,4.82 to 7.03 µM,0.804 to 4.82 µM,0.804 to 4.82 µM,< 0.804 µM,> 9.04 µM,> 9.04 µM,> 9.04 µM,,COc1cc(Nc2ncnc(-n3c(NCCc4ccccc4)nc4ccccc43)n2)cc(OC)c1OC [Compound 509]
9.01 to 11.6 µM,6.18 to 9.01 µM,< 1.03 µM,> 11.6 µM,> 11.6 µM,6.18 to 9.01 µM,9.01 to 11.6 µM,> 11.6 µM,6.18 to 9.01 µM,1.03 to 6.18 µM,1.03 to 6.18 µM,1.03 to 6.18 µM,6.18 to 9.01 µM,1.03 to 6.18 µM,9.01 to 11.6 µM,1.03 to 6.18 µM,> 11.6 µM,> 11.6 µM,> 11.6 µM,,Nc1nc2ccccc2n1-c1ncnc(Nc2ccc(N3CCOCC3)cc2)n1 [Compound 479]
6.53 to 8.4 µM,> 8.4 µM,> 8.4 µM,> 8.4 µM,4.48 to 6.53 µM,> 8.4 µM,> 8.4 µM,> 8.4 µM,< 0.746 µM,< 0.746 µM,< 0.746 µM,0.746 to 4.48 µM,> 8.4 µM,> 8.4 µM,> 8.4 µM,< 0.746 µM,> 8.4 µM,> 8.4 µM,> 8.4 µM,,COc1cc(Nc2ncnc(-n3c(NCc4ccc(F)cc4Cl)nc4ccccc43)n2)cc(OC)c1OC [Compound 951]
,,,,,,0.867 to 5.2 µM,5.2 to 7.59 µM,,,7.59 to 9.75 µM,,,0.867 to 5.2 µM,> 9.75 µM,0.867 to 5.2 µM,,> 9.75 µM,0.867 to 5.2 µM,0.867 to 5.2 µM,COc1cc(Nc2ncnc(-n3c(N)nc4cc(C(F)(F)F)ccc43)n2)cc(OC)c1OC [Compound 292]
